Experimental data published in ChEMBL document CHEMBL5543174, “A Nonbactericidal Anionic Antimicrobial Peptide Provides Prophylactic and Therapeutic Efficacies against Bacterial Infections in Mice by Immunomodulatory-Antithrombotic Duality” (J Med Chem, 2024).
The source made the active and inactive calls. The rule behind the calls is not given here.

Tests used:
Mus musculus [1] = test: Anticoagulation activity in mouse assessed as change in plasma AT-III expression at 10 mg/kg,ip measured after 24 hrs by ELISA; assay type: functional, organism-based
Peritoneal macrophage [2] = test: Induction of chemotaxis in mouse Peritoneal macrophage assessed as upregulation of MCP-1 production at 100 ug/ml preincubated with MTS510 followed by compound addition by ELISA; assay type: functional, cell-based; conditions: dose 100.0 µg/ml
Escherichia coli [3] = test: Antibacterial activity against Escherichia coli ATCC 25922 infected in C57BL/6 mouse assessed as reduction in IL-1beta level in serum at 10 mg/kg,ip administrated 5 hrs after bacterial infection measured after 24 hrs by ELISA; assay type: functional, organism-based; conditions: time 19.0 hrs
Escherichia coli [4] = test: Antibacterial activity against Carbapenem-resistant Escherichia coli infected in C57BL/6 mouse assessed as reduction in TNF-alpha level in serum at 10 mg/kg,ip pre-administrated 5 hrs before bacterial infection measured after 24 hrs by ELISA; assay type: functional, organism-based; conditions: time 29.0 hrs
Peritoneal macrophage [5] = test: Induction of chemotaxis in mouse Peritoneal macrophage assessed as upregulation of TNF-alpha expression at 25 to 100 ug/ml incubated for 6 hrs by ELISA; assay type: functional, cell-based; conditions: dose 25-100 µg/ml
Escherichia coli [6] = test: Antibacterial activity against Carbapenem-resistant Escherichia coli infected in C57BL/6 mouse assessed as reduction in TNF-alpha level in serum at 10 mg/kg,ip administrated 5 hrs after bacterial infection measured after 24 hrs by ELISA; assay type: functional, organism-based; conditions: time 19.0 hrs
Mus musculus [7] = test: Immunomodulatory activity in cyclophosphamide immunosuppressed C57BL/6 mouse with neutrophil depletion model assessed as increase in number of neutrophil in peritoneal lavage at 10 mg/kg,ip administration measured after 12 hrs by flow cytometry; assay type: functional, organism-based
[8] = system: Peritoneal macrophage cell; test: Induction of chemotaxis in mouse Peritoneal macrophage assessed as upregulation of CXCL1 production at 100 ug/ml preincubated with MTS510 followed by compound addition by ELISA; assay type: functional, cell-based; conditions: dose 100.0 µg/ml
Mus musculus [9] = test: Antithrombotic activity in carrageenan-induced tail thrombosis BALB/c mouse model assessed as reduction in thrombus length at 10 mg/kg,ip administration measured for 6 to 48 hrs; assay type: functional, organism-based; conditions: time 6-48 hrs
Escherichia coli [10] = test: Antibacterial activity against Escherichia coli ATCC 25922 infected in C57BL/6 mouse assessed as reduction in IL-1beta level in peritoneal fluid at 10 mg/kg,ip administrated 5 hrs after bacterial infection measured after 24 hrs by ELISA; assay type: functional, organism-based; conditions: time 19.0 hrs
Morganella morganii = test: Antimicrobial activity against Morganella morganii ATCC25830 assessed as inhibition of microbial growth at <= 200 ug/ml incubated for 18 hrs by micro-broth dilution method; assay type: functional, organism-based; conditions: dose <= 200.0 µg/ml
Candida albicans = test: Antimicrobial activity against Candida albicans ATCC 2002 assessed as reduction in microbial colony forming unit at 200 ug/ml incubated for 1 to 4 hrs by time-kill kinetics based analysis; assay type: functional, organism-based; conditions: dose 200.0 µg/ml, time 1-4 hrs
Staphylococcus aureus [11] = test: Antibacterial activity against Methicillin-resistant Staphylococcus aureus infected in C57BL/6 mouse assessed as reduction in inflammatory injury in lung at 10 mg/kg,ip pre-administrated 5 hrs before bacterial infection measured after 24 hrs by hematoxylin and eosin staining based analysis; assay type: functional, organism-based; conditions: time 29.0 hrs
Escherichia coli [12] = test: Antibacterial activity against Escherichia coli ATCC 25922 infected in C57BL/6 mouse assessed as increase in survival rate at 10 mg/kg,ip administrated 5 hrs after bacterial infection measured after 7 days; assay type: functional, organism-based; conditions: time 7.0 day
Peritoneal macrophage [13] = test: Immunoregulatory activity in mouse Peritoneal macrophage assessed as upregulation of IkappaBalpha phosphorylation incubated for 1 hr by Western blotting analysis; assay type: functional, cell-based
Peritoneal macrophage [14] = test: Induction of chemotaxis in mouse Peritoneal macrophage assessed as upregulation of MCP-1 expression incubated for 6 hrs by ELISA; assay type: functional, cell-based
Staphylococcus aureus [15] = test: Antibacterial activity against Staphylococcus aureus ATCC 25923 infected in C57BL/6 mouse assessed as reduction in IL-1beta level in peritoneal fluid at 10 mg/kg,ip pre-administrated 5 hrs before bacterial infection measured after 24 hrs by ELISA; assay type: functional, organism-based; conditions: time 29.0 hrs
Serum = test: Immunomodulatory activity in mouse serum assessed as change on C3a level at 25 to 200 ug/ml incubated for 1 hr by ELISA based complement assay; assay type: functional, cell-free; conditions: dose 25-200 µg/ml
Salmonella paratyphi = test: Antimicrobial activity against Salmonella paratyphi ATCC 9150 assessed as inhibition of microbial growth at <= 200 ug/ml incubated for 18 hrs by micro-broth dilution method; assay type: functional, organism-based; conditions: Salmonella enterica subsp. enterica serovar Paratyphi A, dose <= 200.0 µg/ml
Mus musculus [16] = test: Anticoagulation activity in mouse infected with Methicillin-resistant Staphylococcus aureus assessed as increase in plasma APC expression at 10 mg/kg,ip pre-administrated 5 hrs before bacterial infection measured after 24 hrs by ELISA; assay type: functional, organism-based; conditions: time 29.0 hrs
Peritoneal macrophage [17] = test: Immunomodulatory activity in mouse Peritoneal macrophage assessed as decrease in LTA-induced TNF-alpha production at 25 to 100 ug/ml incubated for 6 hrs by ELISA; assay type: functional, cell-based; conditions: dose 25-100 µg/ml
[18] = system: Peritoneal macrophage cell; test: Induction of chemotaxis in mouse Peritoneal macrophage assessed as upregulation of IL-1beta expression at 25 to 100 ug/ml incubated for 6 hrs by ELISA; assay type: functional, cell-based; conditions: dose 25-100 µg/ml
Staphylococcus aureus [19] = test: Antibacterial activity against Staphylococcus aureus ATCC 25923 infected in C57BL/6 mouse assessed as reduction in IL-6 level in serum at 10 mg/kg,ip administrated 5 hrs after bacterial infection measured after 24 hrs by ELISA; assay type: functional, organism-based; conditions: time 19.0 hrs
Escherichia coli [20] = test: Antimicrobial activity against Escherichia coli ATCC 25922 assessed as reduction in microbial colony forming unit at 200 ug/ml incubated for 1 to 4 hrs by time-kill kinetics based analysis; assay type: functional, organism-based; conditions: dose 200.0 µg/ml, time 1-4 hrs
Staphylococcus aureus [21] = test: Antibacterial activity against Methicillin-resistant Staphylococcus aureus infected in C57BL/6 mouse assessed as reduction in inflammatory injury in lung at 10 mg/kg,ip administrated 5 hrs after bacterial infection measured after 24 hrs by hematoxylin and eosin staining based analysis; assay type: functional, organism-based; conditions: time 19.0 hrs
Escherichia coli [22] = test: Antibacterial activity against Escherichia coli ATCC 25922 infected in C57BL/6 mouse assessed as reduction in TNF-alpha level in serum at 10 mg/kg,ip pre-administrated 5 hrs before bacterial infection measured after 24 hrs by ELISA; assay type: functional, organism-based; conditions: time 29.0 hrs
Staphylococcus aureus [23] = test: Antimicrobial activity against Methicillin-resistant Staphylococcus aureus assessed as reduction in microbial colony forming unit at 200 ug/ml incubated for 1 to 4 hrs by time-kill kinetics based analysis; assay type: functional, organism-based; conditions: dose 200.0 µg/ml, time 1-4 hrs
Staphylococcus aureus [24] = test: Antibacterial activity against Methicillin-resistant Staphylococcus aureus infected in C57BL/6 mouse assessed as reduction in TNF-alpha level in serum at 10 mg/kg,ip administrated 5 hrs after bacterial infection measured after 24 hrs by ELISA; assay type: functional, organism-based; conditions: time 19.0 hrs
Staphylococcus aureus [25] = test: Antibacterial activity against Methicillin-resistant Staphylococcus aureus infected in C57BL/6 mouse assessed as reduction in TNF-alpha level in serum at 10 mg/kg,ip pre-administrated 5 hrs before bacterial infection measured after 24 hrs by ELISA; assay type: functional, organism-based; conditions: time 29.0 hrs
Neutrophil = test: Induction of chemotaxis in mouse bone marrow derived neutrophil assessed as increase in neutrophil migration at 100 ug/ml preincubated with MTS510 for 30 mins followed by compound addition measured after 8 hrs by crystal violet staining based indirect transwell assay; assay type: functional, cell-based; conditions: dose 100.0 µg/ml

CC[C@H](C)[C@H](NC(=O)[C@@H]1CSSC[C@H](NC(=O)[C@H](CCC(=O)O)NC(=O)[C@@H](NC(=O)[C@H](CCCCN)NC(=O)[C@H](Cc2c[nH]cn2)NC(=O)[C@@H](NC(=O)[C@H](CCCCN)NC(=O)[C@H](CCC(=O)O)NC(=O)[C@H](C)NC(=O)[C@H](CCC(=O)O)NC(=O)[C@H](CCC(=O)O)NC(=O)[C@H](CCC(=O)O)NC(=O)[C@H](C)N)[C@@H](C)O)[C@@H](C)O)C(=O)N[C@@H](CC(C)C)C(=O)N[C@@H](CCC(=O)O)C(=O)N1)C(=O)N[C@@H](Cc1ccccc1)C(=O)N[C@H](C(=O)N[C@@H](CC(C)C)C(=O)N[C@@H](CC(C)C)C(=O)N1CCC[C@H]1C(=O)N1CCC[C@@H]1C(=O)N[C@H](C)C(=O)O)[C@@H](C)O
Activity (Mus musculus [1]): inactive | Activity (Peritoneal macrophage [2]): Active | Activity (Escherichia coli [3]): Active | Activity (Escherichia coli [4]): Active | Activity (Peritoneal macrophage [5]): inactive | Activity (Escherichia coli [6]): Active | Activity (Mus musculus [7]): Active | Activity [8]: Active | Activity (Mus musculus [9]): Active | Activity (Escherichia coli [10]): Active | Activity (Morganella morganii): inactive | Activity (Candida albicans): inactive | Activity (Staphylococcus aureus [11]): Active | Activity (Escherichia coli [12]): Active | Activity (Peritoneal macrophage [13]): Dose-Dependent Effect | Activity (Peritoneal macrophage [14]): Dose-Dependent Effect | Activity (Staphylococcus aureus [15]): Active | Activity (Serum): inactive | Activity (Salmonella paratyphi): inactive | Activity (Mus musculus [16]): Active | Activity (Peritoneal macrophage [17]): inactive | Activity [18]: inactive | Activity (Staphylococcus aureus [19]): Active | Activity (Escherichia coli [20]): inactive | Activity (Staphylococcus aureus [21]): Active | Activity (Escherichia coli [22]): Active | Activity (Staphylococcus aureus [23]): inactive | Activity (Staphylococcus aureus [24]): Active | Activity (Staphylococcus aureus [25]): Active | Activity (Neutrophil): Active
